Five compounds from publication PMC4229968, “The Inhibition of the Components from Shengmai Injection towards UDP-Glucuronosyltransferase” (Evidence-based Complementary and Alternative Medicine : eCAM, 2014) can be followed below.

Molecules are shown by their SMILES.

What all share (type): in vitro ADME
The target in one series is T1, UGT1A9 (Homo sapiens, UniProt O60656).
T1 construct: purchased BD Gentest Corp. (Woburn, MA, USA); host or cells: baculovirus-infected insect cells
T1 sequence (O60656 26-530): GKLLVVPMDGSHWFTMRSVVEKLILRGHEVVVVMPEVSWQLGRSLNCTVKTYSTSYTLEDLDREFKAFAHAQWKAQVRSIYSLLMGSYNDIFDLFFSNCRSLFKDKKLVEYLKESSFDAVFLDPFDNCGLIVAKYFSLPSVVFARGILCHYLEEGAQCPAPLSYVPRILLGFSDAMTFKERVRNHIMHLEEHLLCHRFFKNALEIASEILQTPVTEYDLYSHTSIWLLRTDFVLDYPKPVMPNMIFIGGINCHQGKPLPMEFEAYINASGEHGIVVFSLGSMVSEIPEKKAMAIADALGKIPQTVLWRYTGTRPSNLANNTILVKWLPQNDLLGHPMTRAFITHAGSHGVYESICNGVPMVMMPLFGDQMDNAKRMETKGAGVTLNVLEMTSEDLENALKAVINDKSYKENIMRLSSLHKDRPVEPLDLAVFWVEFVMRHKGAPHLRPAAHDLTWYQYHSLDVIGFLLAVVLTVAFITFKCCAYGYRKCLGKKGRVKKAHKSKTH
As to the kind of experiment: Recombinant UGT1A9-catalyzed 4-MU glucuronidation inhibition. Particulars: pH 7.4, probe 4-methylumbelliferone (4-MU), UGT1A9, 100 μM of compound, 4-MU substrate, read-out: residual activity. The source says:
(§1) 4-Methylumbelliferone (4-MU), 4-methylumbelliferone-β-D-glucuronide (4-MUG), Tris-HCl, 7-hydroxycoumarin, and uridine-5′-diphosphoglucuronic acid (UDPGA) (trisodium salt) were purchased from Sigma-Aldrich (St. Louis, MO). Recombinant human UGT isoforms (UGT1A1, UGT1A3, UGT1A4, UGT1A6, UGT1A7, UGT1A8, UGT1A9, UGT1A10, UGT2B4, UGT2B7, and UGT2B15) expressed in baculovirus-infected insect cells were obtained from BD Gentest Corp. (Woburn, MA, USA). Ophiopogonin D (OD), ophiopogonin D′ (OD′), methylophiopogonanone A (MA), methylophiopogonanone B (MB), and ruscorectal (RU) were purchased from Sichuan Weikeqi Biotechnology Company (Chengdu, Sichuan, China). The purity of these compounds was above 95%. All other reagents were of HPLC grade or of the highest grade commercially available.
(§2) 4-MU, the nonspecific probe substrate for all the UGT isoforms except UGT1A4, was used in the present study to initially screen the inhibition potential of maidong's components towards UGT isoforms as previously reported. In brief, the incubation system (total volume = 200 μL) consisted of recombinant UGTs, 5 mM UDPGA, 5 mM MgCl2, 50 mM Tris-HCl (pH = 7.4), and 4-MU in the absence or presence of different concentrations of maidong's components. The compounds were dissolved in DMSO, and the final concentration of DMSO was below 0.5% (v/v). The used incubation time and protein concentration were previously determined to ensure the reaction rate within the linear range. The 4-MU concentration was equal to known K m or S 50 values for each UGT isoform. After 5 min preincubation at 37°C, the incubation reaction was initiated via adding UDPGA to the mixture system. The reactions were quenched by adding 100 μL acetonitrile with 7-hydroxycoumarin (100 μM) as internal standard. Centrifuged at 20000 ×g for 10 min, an aliquot of supernatant was transferred to an autoinjector vial for HPLC analysis. The HPLC system (Shimadzu, Kyoto, Japan) contained a SCL-10A system controller, two LC-10AT pumps, a SIL-10A autoinjector, and a SPD-10AVP UV detector. Chromatographic separation was carried out using a C18 column (4.6 × 200 mm, 5 μm, Kromasil) at a flow rate of 1 mL/min and UV detector at 316 nm. The mobile phase consisted of acetonitrile (A) and H2O containing 0.5% (v/v) formic acid (B). The following gradient condition was used: 0–15 min, 95–40% B; 15–20 min, 10% B; 20–30 min, 95% B.

The next series concerns the target T2, UGT1A3 (Homo sapiens, UniProt P35503).
T2 construct: purchased BD Gentest Corp. (Woburn, MA, USA); host or cells: baculovirus-infected insect cells
T2 sequence (P35503 29-534): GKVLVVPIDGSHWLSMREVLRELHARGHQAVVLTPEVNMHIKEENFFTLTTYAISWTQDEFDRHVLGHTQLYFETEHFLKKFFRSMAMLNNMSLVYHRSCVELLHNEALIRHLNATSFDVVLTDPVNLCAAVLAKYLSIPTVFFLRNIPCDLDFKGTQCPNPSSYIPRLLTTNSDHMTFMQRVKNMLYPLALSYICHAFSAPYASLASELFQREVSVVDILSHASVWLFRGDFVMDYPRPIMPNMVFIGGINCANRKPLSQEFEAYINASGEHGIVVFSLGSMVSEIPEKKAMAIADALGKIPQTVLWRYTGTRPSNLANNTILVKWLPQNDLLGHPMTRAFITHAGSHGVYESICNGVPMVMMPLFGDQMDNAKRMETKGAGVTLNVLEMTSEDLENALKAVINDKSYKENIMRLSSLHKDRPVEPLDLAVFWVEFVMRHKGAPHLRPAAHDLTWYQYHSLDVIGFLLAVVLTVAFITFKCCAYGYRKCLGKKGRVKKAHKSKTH
As to the kind of experiment: Recombinant UGT1A3-catalyzed 4-MU glucuronidation inhibition. Particulars: pH 7.4, probe 4-methylumbelliferone (4-MU), UGT1A3, 100 μM of compound, 4-MU substrate, read-out: residual activity.
From the text: as §1, §2

The next series deals with T3, UGT1A7 (Homo sapiens, UniProt Q9HAW7).
T3 construct: purchased BD Gentest Corp. (Woburn, MA, USA); host or cells: baculovirus-infected insect cells
T3 sequence (Q9HAW7 26-530): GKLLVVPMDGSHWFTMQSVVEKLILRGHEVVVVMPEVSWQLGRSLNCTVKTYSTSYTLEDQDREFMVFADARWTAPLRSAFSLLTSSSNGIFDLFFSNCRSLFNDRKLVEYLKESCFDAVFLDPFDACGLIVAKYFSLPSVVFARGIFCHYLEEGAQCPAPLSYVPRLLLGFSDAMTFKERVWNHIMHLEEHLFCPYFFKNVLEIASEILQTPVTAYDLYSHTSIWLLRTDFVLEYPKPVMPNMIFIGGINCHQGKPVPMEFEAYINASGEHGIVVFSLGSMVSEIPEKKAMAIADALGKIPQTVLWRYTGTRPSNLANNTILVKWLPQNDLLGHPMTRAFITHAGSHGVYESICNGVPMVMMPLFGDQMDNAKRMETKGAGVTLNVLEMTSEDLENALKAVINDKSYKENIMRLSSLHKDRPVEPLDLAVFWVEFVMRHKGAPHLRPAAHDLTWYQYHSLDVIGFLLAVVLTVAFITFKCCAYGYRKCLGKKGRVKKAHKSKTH
As to the kind of experiment: Recombinant UGT1A7-catalyzed 4-MU glucuronidation inhibition. Particulars: pH 7.4, probe 4-methylumbelliferone (4-MU), UGT1A7, 100 μM of compound, 4-MU substrate, read-out: residual activity.
From the text: as §1, §2

On to `Cc1c(O)c(C)c2c(c1O)C(=O)[C@H](Cc1ccc3c(c1)OCO3)CO2` [MA, methylophiopogonanone A], for which the activity at 100 µM came out at 38.7% on UGT1A9, 35.5 ± 6.1% on UGT1A3 and 57.5 ± 10.8% on UGT1A7.
On the same counts, the results for `COc1ccc(C[C@@H]2COc3c(C)c(O)c(C)c(O)c3C2=O)cc1` [MB, methylophiopogonanone B] are 68.2 ± 1.5%, 84.2 ± 22.8% and 83.4 ± 5.9%.
In the same order, the values of `C[C@@H]1CC[C@@]2(OC1)O[C@H]1C[C@H]3[C@@H]4CC=C5C[C@@H](O)C[C@@H](O[C@@H]6O[C@H](C)[C@H](O)[C@H](O[C@@H]7OC[C@@H](O)[C@H](O)[C@H]7O)[C@H]6O[C@@H]6O[C@@H](C)[C@H](O)[C@@H](O)[C@H]6O)[C@]5(C)[C@H]4CC[C@]3(C)[C@H]1[C@@H]2C` [OD, ophiopogonin D] are 135 ± 1.5%, 40.7 ± 0.3% and 144 ± 8.7%.
On the same counts, the results for `C[C@@H]1CC[C@@]2(OC1)O[C@H]1C[C@H]3[C@@H]4CC=C5C[C@@H](O[C@@H]6O[C@H](CO)[C@@H](O)[C@H](O[C@@H]7OC[C@@H](O)[C@H](O)[C@H]7O)[C@H]6O[C@@H]6O[C@@H](C)[C@H](O)[C@@H](O)[C@H]6O)CC[C@]5(C)[C@H]4CC[C@]3(C)[C@H]1[C@@H]2C` [OD′, ophiopogonin D′] are 134 ± 2.1%, 36.5 ± 2.5% and 122 ± 1.3%.
With `CC1CCC2(OC1)OC1CC3C4CC=C5CC(O)CC(O)C5(C)C4CCC3(C)C1C2C` (stereo not drawn) [RU, ruscorectal], the activity at 100 µM worked out at 110.7 ± 1.1% on UGT1A9, 37.2 ± 18.2% at UGT1A3 and 52.4 ± 7.4% on UGT1A7.
